Columns and labels:
[1] = tested on: mice, intra-articular zymosan arthritis model; test: Zymosan-induced knee joint arthritis in mice; type: in vivo; conditions: 600 mg/kg oral gavage, 5 doses, 24 h after zymosan
Protocol: Zymosan injected directly into the knee joint of mice elicits an inflammatory response and is used as a model of arthritis (Verschure et al, Ann. Rheum Dis. 53:455-460, 1994). Endpoints measured in this model include knee joint swelling score, cytokine levels in the synovial tissue and microscopic pathology of the knee.
Arthritis was induced in mice by intra-articular injection of zymosan (180 μg) into the knee joint (at time zero) of both knees in each mouse. Mice were treated by oral gavage with vehicle (saline, n=5) or dapansutrile (drug) in vehicle (600 mg/kg, n=4) at times −25 hr, −13 hr, and −1 hr. After zymosan injection at time zero, mice were further treated with vehicle or dapansutrile (600 mg/kg) at times +11 hr and +23 hr. Mice were terminated 24 hours after the zymosan injection.
Macroscopic joint swelling was assessed on all knees after the skin is removed using a scoring system ranging from 0 to 3, with 0 being no swelling and 3 being severe swelling.
In addition, synovial membrane was taken from one knee per mouse and the cells were lysed for measurement of mouse IL-1β, using an ELISA kit from R&D Systems, Inc., following manufacturer's protocols. The results are shown as mean ±standard error of mean and statistical evaluation is performed (see FIG. 2).

[2] = target: T1, NLRP3 inflammasome (association of caspase-1 with NLRP3) (Homo sapiens, UniProt Q96P20); test: FRET analysis of NLRP3 inflammasome assembly in human monocyte-derived macrophages after LPS/ATP; type: cell-based; conditions: 50 μM, HMDM from 4 donors, P<0.01
T1 construct: endogenous in cells; host or cells: human monocyte-derived macrophages (HMDM) from 4 healthy donors
Protocol: Human monocyte-derived macrophages (HMDM) were cultured on glass slides for 5 days with GM-CSF, stimulated for 4 hours with […] LPS and then treated with 5 mM ATP for one hour. Dapansutrile (OLT1177™, 50 μM) was added to the cells either 30 minutes following LPS stimulation or at the same time as ATP.
After washing with PBS, the cells were fixed and permeabilized with 70-30 acetone-methanol as described by Gamboni et al, Physiol Rep., 2 (7), 2014. Briefly, cells were placed in a humidified slide chamber blocked for 1 hour in 10% normal donkey serum (Jackson Immunologicals, Westgrove, PA). After removal of the donkey serum, the primary antibodies to human NLRP3 (Cryo-2, AdipoGen San Diego, CA), human caspase-1 (sc-515, Santa Cruz Biotechnology) or isomolar, species-specific anti-IgG (R&D Systems) were added and kept overnight at 4° C. […] FRET images were acquired using a Marianas Imaging Station using a Zeiss 639 Plan-Apochromat objective (1.4 N/A), a Sutter Xenon light source and a Cooke SensiCam as described by Gamboni et al. The corrected FRET was calculated as FRET=Transfer-Fd/D donor-Fa/Aa acceptor as reported by Berney et al, Biophys J., 84:3992-4010, 2003. […]

[3] = tested on: IL-1β, IL-6 and IL-1α in hearts of mice; test: Cytokine levels in heart homogenates after in vivo lipopolysaccharide challenge; set-up: species or system C57BL/6J mice; conditions: 200 mg/kg IP every 12 h for 5 doses; LPS 5 mg/kg IP, 2 h; vs saline, P<0.05
Protocol: C57BL/6J mice male mice, 22-26 grams (Jackson Laboratories, Bar Harbor, ME) were treated with 200 mg/kg dapansutrile (OLT1177™) in 200 μl of saline or the matching volume of vehicle (saline) intraperitoneally (IP) every 12 hours for 5 doses. One hour after the last dose or saline, the animals were injected IP with 200 μl of lipopolysaccharide (LPS, E. coli, 055: B5, Sigma-Aldrich) at 5 mg/kg and sacrificed after 2 h. Cytokines were measured in hearts homogenates. Tissue homogenates were lysed using RIPA buffer (Sigma-Aldrich) containing a mixture of protease inhibitors (Roche, Indianapolis, IN), centrifuged at 13,000g for 20 minutes at 4° C., and the supernatants were assayed for cytokine levels of IL-1β, IL-6 and IL-1α. The cytokine concentrations were corrected for total protein content.
The dose of LPS that was used in the study covers ischemic inflammation, vascular inflammation and cell-mediated inflammation.

[4] = tested on: dogs, occlusive coronary thrombus formation; test: Thrombus formation in anesthetized dogs (anodal current to left circumflex coronary artery); type: in vivo; conditions: intravenous, about 30 min before anodal current; written in present tense
Protocol: To evaluate the effect of compound of Formula I or II on dynamic thrombus formation in vivo, the following experimental protocol, similar to the method of J. L. Romson et al. (Thromb. Res. 17:841-853, 1980), is performed.
Surgical Preparation and Instrumentation. Briefly, purpose-bred dogs are anesthetized, intubated and ventilated with room air. The heart is exposed by a left thoracotomy in the fifth intercostal space and suspended in a pericardial cradle. A 2-3 cm segment of the left circumflex coronary artery (LCCA) is isolated by blunt dissection. The artery is instrumented from proximal to distal with a flow probe, a stimulation electrode, and a Goldblatt clamp. The flow probe monitors the mean and phasic LCCA blood flow velocities. […]
Experimental Protocol: Dogs are randomized to one of four treatment protocols in which the control group receives saline intravenously and the three drug-treated groups are administered Rho kinase inhibitor compound intravenously. […] The number and frequency of cyclic flow variations (CFV) that precede formation of an occlusive thrombus are recorded. […]

T1 sequence (Q96P20 whole entry): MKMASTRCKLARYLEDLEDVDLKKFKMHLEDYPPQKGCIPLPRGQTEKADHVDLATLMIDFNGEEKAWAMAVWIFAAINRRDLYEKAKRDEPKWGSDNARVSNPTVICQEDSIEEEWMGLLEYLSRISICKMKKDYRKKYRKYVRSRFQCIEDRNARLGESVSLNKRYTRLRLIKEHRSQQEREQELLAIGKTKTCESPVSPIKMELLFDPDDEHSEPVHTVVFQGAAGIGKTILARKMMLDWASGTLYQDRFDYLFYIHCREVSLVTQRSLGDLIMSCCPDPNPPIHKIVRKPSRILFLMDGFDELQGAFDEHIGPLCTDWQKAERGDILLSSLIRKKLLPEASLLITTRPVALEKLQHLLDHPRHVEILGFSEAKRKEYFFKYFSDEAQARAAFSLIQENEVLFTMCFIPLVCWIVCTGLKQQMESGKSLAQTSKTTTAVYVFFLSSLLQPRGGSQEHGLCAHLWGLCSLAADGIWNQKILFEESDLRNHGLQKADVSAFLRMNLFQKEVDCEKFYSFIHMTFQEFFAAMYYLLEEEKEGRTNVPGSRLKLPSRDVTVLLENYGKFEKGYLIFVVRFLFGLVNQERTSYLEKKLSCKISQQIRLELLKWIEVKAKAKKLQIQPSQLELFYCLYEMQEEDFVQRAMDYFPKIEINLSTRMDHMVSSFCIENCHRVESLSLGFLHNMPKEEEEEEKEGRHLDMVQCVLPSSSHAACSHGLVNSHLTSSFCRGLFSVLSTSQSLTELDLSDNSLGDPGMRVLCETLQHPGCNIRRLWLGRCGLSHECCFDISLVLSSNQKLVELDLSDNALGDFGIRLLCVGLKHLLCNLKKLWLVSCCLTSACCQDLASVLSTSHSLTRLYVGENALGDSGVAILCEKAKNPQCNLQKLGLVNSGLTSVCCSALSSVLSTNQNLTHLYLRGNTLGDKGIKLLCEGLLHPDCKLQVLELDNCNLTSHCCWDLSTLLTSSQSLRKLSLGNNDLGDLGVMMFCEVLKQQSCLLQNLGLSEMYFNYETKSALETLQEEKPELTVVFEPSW

SMILES: CS(=O)(=O)CCC#N [OLT1177™, 3-methanesulfonyl-propionitrile]
- level of IL-1β in synovial membrane ([1]; vs untreated mice): significantly reduced
- macroscopic joint swelling (score 0 to 3) ([1]; vs vehicle-treated mice): significant reduction
- association of caspase-1 with NLRP3 (FRET intensity) [2]: reduced
- cytokine level of IL-1α in hearts [3]: reduced
- cytokine level of IL-1β in hearts [3]: reduced
- cytokine level of IL-6 in hearts [3]: reduced
- number and frequency of cyclic flow variations that precede formation of an occlusive thrombus [4]: significantly increases

Source: US12318361B2, “Methods for treating cardiovascular diseases” (Olatec Therapeutics LLC, priority 2017, dated 2025)
